From patent publication US20060223708A1, “Substituted N-[pyrimidin-2-ylmethyl]carboxamides and their use as herbicides and plant growth regulators” (Bayer CropScience GmbH, priority 2005, published 2006)

Tests used:
Amaranthus retroflexus [1] = assay: Pre-emergence effect on weeds; assay type: in vivo; settings: dosage 1000 g of a.i./ha, scored visually after 3 to 4 weeks
Text: (§1) 1. Pre-Emergence Effect on Weeds
(§2) Seeds of monocotyledonous and dicotyledonous weed plants are placed into sandy loam soil in cardboard pots and covered with soil. The compounds of the invention, formulated as wettable powders or emulsion concentrates, are then applied to the surface of the soil cover in the form of aqueous suspensions or emulsions at an application rate of 600 to 800 l of water/ha (converted), in various dosages. After the treatment, the pots are placed in a greenhouse and kept under good growth conditions for the weeds. After the test plants have emerged, the damage to the plants or the negative effect on the emergence was scored visually after a test period of 3 to 4 weeks by comparison with untreated controls. Here, the compounds according to the invention have excellent activity against a broad spectrum of economically important monocotyledonous and dicotyledonous harmful plants, see Tables A to G.

Lolium multiflorum [2] = assay: Pre-emergence effect on weeds; assay type: in vivo; settings: dosage 1000 g of a.i./ha, scored visually after 3 to 4 weeks
Text: as §1, §2

Setaria viridis [3] = assay: Pre-emergence effect on weeds; assay type: in vivo; settings: dosage 1000 g of a.i./ha, scored visually after 3 to 4 weeks
Text: as §1, §2

Stellaria media = assay: Pre-emergence effect on weeds; assay type: in vivo; settings: dosage 1000 g of a.i./ha, scored visually after 3 to 4 weeks
Text: as §1, §2

[4] = Pre-emergence effect on weeds; assay type: in vivo, Sinapis arvensis; settings: dosage 1000 g of a.i./ha, scored visually after 3 to 4 weeks
Text: as §1, §2

Amaranthus retroflexus [5] = assay: Herbicidal post-emergence effect on harmful plants; assay type: in vivo; settings: dosage 1000 g of a.i./ha, rated after 3 to 4 weeks
Protocol: (§3) 2. Herbicidal Post-Emergence Effect on Harmful Plants
(§4) Seeds of monocotyledonous and dicotyledonous harmful plants are placed in sandy loam soil in cardboard pots, covered with soil and cultivated in a greenhouse under good growth conditions. Two to three weeks after sowing, the test plants are treated at the three-leaf stage. The compounds according to the invention, formulated in the form of wettable powders or emulsion concentrates, are sprayed onto the surface of the green parts of the plants at an application rate of 600 to 800 l of water/ha (converted), in various dosages. After the test plants have remained in the greenhouse under optimum growth conditions for 3 to 4 weeks, the effect of the compounds is rated. Here, the compounds according to the invention have excellent activity against a broad spectrum of economically important monocotyledonous and dicotyledonous harmful plants, see Tables H to J.

Cyperus iria = assay: Herbicidal post-emergence effect on harmful plants; assay type: in vivo; settings: dosage 1000 g of a.i./ha, rated after 3 to 4 weeks
Protocol: as §3, §4

Echinochloa crus galli = assay: Herbicidal post-emergence effect on harmful plants; assay type: in vivo; settings: dosage 1000 g of a.i./ha, rated after 3 to 4 weeks
Protocol: as §3, §4

Setaria viridis [6] = assay: Herbicidal post-emergence effect on harmful plants; assay type: in vivo; settings: dosage 1000 g of a.i./ha, rated after 3 to 4 weeks
Protocol: as §3, §4

[7] = Pre-emergence effect on weeds; assay type: in vivo, Avena fatua; settings: dosage 1000 g of a.i./ha, scored visually after 3 to 4 weeks
Text: as §1, §2

Lolium multiflorum [8] = assay: Herbicidal post-emergence effect on harmful plants; assay type: in vivo; settings: dosage 1000 g of a.i./ha, rated after 3 to 4 weeks
Protocol: as §3, §4

SMILES	Herbicidal effect AMARE (Amaranthus retroflexus [1]) [%]	Herbicidal effect LOLMU (Lolium multiflorum [2]) [%]	Herbicidal effect SETVI (Setaria viridis [3]) [%]	Herbicidal effect STEME (Stellaria media) [%]	Herbicidal effect SINAL [4] [%]	Herbicidal effect AMARE (Amaranthus retroflexus [5]) [%]	Herbicidal effect CYPIR (Cyperus iria) [%]	Herbicidal effect ECHCG (Echinochloa crus galli) [%]	Herbicidal effect SETVI (Setaria viridis [6]) [%]	Herbicidal effect AVESA [7] [%]	Herbicidal effect LOLMU (Lolium multiflorum [8]) [%]
Cc1cc(Oc2cccc(C(F)(F)F)c2)nc(CNC(=O)C2CC2)n1 [Compound 1-206, N-[(4-methyl-6-{(3-trifluoromethyl)phenoxy}pyrimidin-2-yl)methyl]cyclopropanecarboxamide]	100	100	100	100							
Cc1cc(Oc2cccc(C(F)(F)F)c2)nc(CNC(=O)C2CCC2)n1 [Compound 1-505]	100	100	100	100							
Cc1cc(Oc2csc(C(F)(F)F)c2)nc(CNC(=O)C2CC2)n1 [Compound 2-205]	100		100	100	90	90	90	90	90		
CCc1cc(Oc2csc(C(F)(F)F)c2)nc(CNC(=O)C2CC2)n1 [Compound 2-304]	100		100	100	100						
CCc1cc(Oc2ccnc(C(F)(F)F)c2)nc(CNC(=O)C2CC2)n1 [Compound 3-306, N-[(4-ethyl-6-{[2-(trifluoromethyl)pyridin-4-yl]oxy}pyrimidin-2-yl)methyl]cyclopropanecarboxamide]	100		100		100	90	100	90		100	90
Cc1cc(Oc2cc(C(F)(F)F)nn2C)nc(CNC(=O)C2CC2)n1 [Compound 5-206]		100	100	100	100	90	100	100			90
CCc1cc(Oc2cc(C(F)(F)F)nn2C)nc(CNC(=O)C(F)(F)F)n1 [Compound 5-319]		100	100	100	100						
